± gives the standard deviation of the averaged measurements.
Columns and labels:
HS-PSS [1] = assay: drug sensitivity score (DSS, CellTiter-Glo viability, 72 h) (DSS (dimensionless)); higher = more sensitive; extreme values may be limits of the assay
Procedure, shortened: (§1)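 Viability of MPNST cell lines and primary human Schwann cells was read as CellTiter-Glo ATP luminescence after 72 h at 37 °C, 5% CO2, in 384-well plates seeded with 750–1000 cells per well. Each compound had been preprinted at five concentrations in 10-fold steps. Signals were scaled between vehicle and positive-control wells, duplicates averaged where present, and fitted with four-parameter logistic curves. Drug sensitivity score and relative IC50 (censored at the top concentration) come from those fits, and percent inhibition is taken at the top concentration.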

HS-Sch-2 [2] = assay: as above
Procedure, shortened: as §1

[3] = system: HSC1 (primary human Schwann cells); assay: as above
Procedure, shortened: as §1

[4] = system: HSC2 (primary human Schwann cells); assay: as above
Procedure, shortened: as §1

S1507-2 [5] = assay: as above
Procedure, shortened: as §1

S462 [6] = assay: as above
Procedure, shortened: as §1

ST8814 [7] = assay: as above
Procedure, shortened: as §1

STS26T [8] = assay: as above
Procedure, shortened: as §1

YST-1 [9] = assay: as above
Procedure, shortened: as §1

HS-PSS [10] = assay: drug sensitivity score (DSS, CellTox-Green cytotoxicity, 72 h) (DSS (dimensionless)); higher = more cytotoxic; extreme values may be limits of the assay
Procedure, shortened: (§2)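 MPNST cell lines and primary human Schwann cells were grown for 72 h at 37 °C in 384-well plates containing five 10-fold compound dilutions. CellTox-Green, added before seeding at a final 1:1000 dilution, gave fluorescence from DNA released by disrupted cells, and signals were scaled to vehicle and positive-control wells. Curves were fitted with a four-parameter logistic model. Drug sensitivity score and relative IC50 come from these fits, with IC50 censored at the top concentration.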

[11] = system: HSC1 (primary human Schwann cells); assay: as above
Procedure, shortened: as §2

[12] = system: HSC2 (primary human Schwann cells); assay: as above
Procedure, shortened: as §2

S1507-2 [13] = assay: as above
Procedure, shortened: as §2

ST8814 [14] = assay: as above
Procedure, shortened: as §2

STS26T [15] = assay: as above
Procedure, shortened: as §2

HS-PSS [16] = assay: % inhibition of CellTiter-Glo viability at highest tested concentration (72 h), relative to DMSO and benzethonium chloride controls; higher = more inhibition
Procedure, shortened: as §1

HS-Sch-2 [17] = assay: as above
Procedure, shortened: as §1

[18] = system: HSC1 (primary human Schwann cells); assay: as above
Procedure, shortened: as §1

[19] = system: HSC2 (primary human Schwann cells); assay: as above
Procedure, shortened: as §1

S1507-2 [20] = assay: as above
Procedure, shortened: as §1

S462 [21] = assay: as above
Procedure, shortened: as §1

ST8814 [22] = assay: as above
Procedure, shortened: as §1

STS26T [23] = assay: as above
Procedure, shortened: as §1

YST-1 [24] = assay: as above
Procedure, shortened: as §1

Row | Compound | drug sensitivity score (HS-PSS [1]) | drug sensitivity score (HS-Sch-2 [2]) | drug sensitivity score [3] | drug sensitivity score [4] | drug sensitivity score (S1507-2 [5]) | drug sensitivity score (S462 [6]) | drug sensitivity score (ST8814 [7]) | drug sensitivity score (STS26T [8]) | drug sensitivity score (YST-1 [9]) | drug sensitivity score (HS-PSS [10]) | drug sensitivity score [11] | drug sensitivity score [12] | drug sensitivity score (S1507-2 [13]) | drug sensitivity score (ST8814 [14]) | drug sensitivity score (STS26T [15]) | % inhibition (HS-PSS [16]) [%] | % inhibition (HS-Sch-2 [17]) [%] | % inhibition [18] [%] | % inhibition [19] [%] | % inhibition (S1507-2 [20]) [%] | % inhibition (S462 [21]) [%] | % inhibition (ST8814 [22]) [%] | % inhibition (STS26T [23]) [%] | % inhibition (YST-1 [24]) [%]
1 | CC[C@H](Nc1ncnc2[nH]cnc12)c1nc2cccc(F)c2c(=O)n1-c1ccccc1 [Idelalisib] (max concentration tested 10000 nM) | 0 | 0 | 0 | 0 | 7.05 ± 0.49 | 0 | 0.546 | 4.47 | 5.3 | 0 | 0 | 2.82 | 0 | 0 | 2.81 | 2.74 | 3.62 | 14.6 | 9.86 | 35.2 ± 8.5 | 19.1 ± 8.8 | 21.2 | 49.3 | 46.5
2 | C[C@]12CC[C@@H]3c4ccc(O)cc4C[C@@H](CCCCCCCCC[S+]([O-])CCCC(F)(F)C(F)(F)F)[C@H]3[C@@H]1CC[C@@H]2O (stereo partly specified) [Fulvestrant] (max concentration tested 1000 nM) | 0 | 0 | 0.178 | 0.538 | 0 | 0 | 0 | 0 | 0 | 0 | 0 | 0 | 1.33 ± 1.9 | 0 | 0 | 10.3 | 8.02 | 11.4 | 18.2 | -11.9 ± 2.2 | 6.51 ± 4.8 | -2.59 | 4.69 | 1.11
3 | O=C(CCCCCCC(=O)Nc1ccccc1)NO [Vorinostat] (max concentration tested 10000 nM) | 4.89 | 8.6 | 9.34 | 8.25 | 9.06 ± 1.5 | 7.84 ± 1.1 | 8.9 | 6.18 | 13 | 2.31 | 2.83 | 4.21 | 7.03 ± 1.4 | 5.36 | 3.21 | 79.2 | 99.6 | 90.6 | 88.6 | 103.1 ± 0.86 | 101.1 ± 0.69 | 101 | 83.9 | 100
4 | Cc1cccc(-c2nn3c(c2-c2ccnc4ccc(C(N)=O)cc24)CCC3)n1 [Galunisertib] (max concentration tested 1000 nM) | 0 | 0 | 0 | 0 | 0 | 0.00835 ± 0.012 | 0 | 0.276 | 0 | 0 | 0 | 0 | 0.0896 ± 0.13 | 0 | 0 | 3.21 | -22 | 6.58 | 10.8 | 9.64 ± 5.1 | 5.62 ± 8.5 | -1.47 | 12.7 | -12.1
5 | Nc1ccn([C@@H]2O[C@H](CO)[C@@H](O)[C@@H]2O)c(=O)n1 [Cytarabine] (max concentration tested 10000 nM) | 10.2 | 9.14 | 10.8 | 14 | 6.29 ± 0.62 | 20 ± 0.39 | 12.1 | 13.8 | 13.2 | 5.69 | 5.58 | 4.6 | 0.68 ± 0.19 | 7.9 | 5.45 | 65.1 | 69.3 | 65.1 | 80.3 | 66.4 ± 5.8 | 96.4 ± 1.9 | 90.2 | 74.7 | 69.2
6 | CCCCC(=O)OCC(=O)[C@]1(O)Cc2c(O)c3c(c(O)c2[C@@H](O[C@H]2C[C@H](NC(=O)C(F)(F)F)[C@H](O)[C@H](C)O2)C1)C(=O)c1c(OC)cccc1C3=O [Valrubicin] (max concentration tested 5000 nM) | 11.7 | 14.3 | 14 | 14.1 | 10.19 ± 0.1 | 14.22 ± 0.059 | 13.6 | 13.5 | 19.3 | 0 | 0 | 0 | 0.125 ± 0.18 | 0 | 0 | 97.5 | 101 | 95.1 | 98.5 | 92.5 ± 2.8 | 94.14 ± 0.67 | 97.2 | 97.7 | 100
7 | CCNC(=O)CCC/C=C\C[C@@H]1[C@@H](/C=C/[C@@H](O)CCc2ccccc2)[C@H](O)C[C@@H]1O [Bimatoprost] (max concentration tested 5500 nM) | 0.89 | 0.89 | 0 | 0 | 0.00145 ± 0.0021 | 0.502 ± 0.71 | 0 | 0 | 0 | 0.89 | 0 | 0 | 0 | 0 | 0 | -11.6 | -3.66 | 2.26 | 9.6 | 0.42 ± 0.85 | 9.55 ± 12 | 2.33 | 7.31 | 7.41
8 | CCc1cncnc1N1CCN(Cc2nc3ccc(C(F)(F)F)cc3[nH]2)CC1 (max concentration tested 10000 nM) | 4.22 | 2.07 | 0.31 | 0.531 | 0.267 ± 0.38 | 0.305 ± 0.43 | 0.171 | 1.12 | 0.69 | 0 | 0 | 0 | 0 | 0 | 0 | 64 | 47.6 | 13.9 | 21.4 | 9.77 ± 2.6 | 13.2 ± 8.4 | 13.6 | 19.7 | 22.3
9 | Nc1nc(OCc2cc(Br)cs2)c2[nH]cnc2n1 [Lomeguatrib] (max concentration tested 10000 nM) | 0.77 | 0 | 0 | 0 | 0 | 0 | 0 | 0 | 0 | 0 | 0 | 0 | 0 | 0 | 0 | 15.1 | -6.3 | -5.66 | -5.93 | -7.24 ± 3.2 | -14 ± 0.99 | -0.939 | -6.97 | -1.6
10 | CC(C)(C)c1cnc(CSc2cnc(NC(=O)C3CCNCC3)s2)o1 [SNS-032] (max concentration tested 10000 nM) | 25.9 | 27.9 | 36.9 | 38 | 18.6 ± 1.5 | 36.8 ± 1.5 | 24.5 | 31.5 | 29.4 | 1.68 | 12.8 | 14.3 | 0 | 14.4 | 23.2 | 70.5 | 98.6 | 79.4 | 86.5 | 80.6 ± 3.5 | 104 ± 0.55 | 87.2 | 97.5 | 99.9
11 | CS(=O)(=O)c1ccc(C(=O)Nc2ccc(Cl)c(-c3ccccn3)c2)c(Cl)c1 [Vismodegib] (max concentration tested 10000 nM) | 0.05 | 1.12 | 0 | 0 | 0 | 0 | 0 | 0 | 0 | 0 | 0 | 0 | 0 | 0 | 0 | 13.9 | 17.3 | -4.59 | -4.33 | 2.36 ± 1.7 | -4.72 ± 14 | -2.96 | 2.72 | 6.14
12 | CNNCc1ccc(C(=O)NC(C)C)cc1 [Procarbazine] (max concentration tested 10000 nM) | 0 | 0 | 0 | 0 | 0 | 0 | 0 | 0 | 0 | 0 | 0 | 0 | 0.135 ± 0.19 | 0 | 0 | 4.68 | -5.24 | 4.32 | 3.15 | -0.333 ± 1.2 | -14.6 ± 3.4 | 1.52 | 4.63 | 3.64
13 | O=C(O)CCCCC(CCSCc1ccccc1)SCc1ccccc1 (stereo unspecified) [CPI-613] (max concentration tested 10000 nM) | 0.36 | 0 | 0 | 0 | 0 | 0 | 0 | 0 | 0.06 | 0 | 0 | 0 | 0.502 ± 0.71 | 0 | 0 | 17 | -6.28 | -3.11 | -1.05 | -8.09 ± 10 | -9.93 ± 9.6 | 0.691 | -2.54 | 14.3
14 | c1ccc([C@H]2CN3CCSC3=N2)cc1 [Levamisole] (max concentration tested 10000 nM) | 0 | 0 | 0 | 0 | 0 | 0 | 0 | 0 | 0 | 0 | 0 | 0 | 0 | 0 | 0 | -6.64 | -7.3 | -1.64 | 4.5 | -5.81 ± 3.8 | 0.12 ± 8.6 | -0.0528 | 6.7 | 0.96
